One series has as its system RBC AChE. Kind of series: PBK model-based reverse dosimetry and BMD analysis of RBC AChE inhibition. Further details: species or system human. Here is the method: In the present study, PBK model-based reverse dosimetry was applied to translate the in vitro rhAChE inhibition concentration–response curve into in vivo RBC AChE inhibition dose–response curves first for the average adult population.
The external dose values thus obtained together with corresponding inhibitory effects were used to construct RBC AChE inhibition dose–response curves for the average population.
A BMD analysis was performed to derive a POD from the predicted in vivo dose–response curves obtained for the average population. In the present study, the BMDL10 values were used as POD based on the fact that the United States Environmental Protection Agency (USEPA) also used a 10% effect level to define a health based guidance value (USEPA [2011], [2014]). BMD analysis was carried out using the Benchmark Dose Software version 3.1.2 (USEPA [2019]), with exponential or hill models because of their adequacy in predicting continuous data. The BMDL10 value with the lowest AIC was chosen and further evaluated by comparing the obtained values with reported BMDL10 by USEPA ([2011], [2014]).

Another series concerns pooled HLMs (CYPs). Kind of series: CYP-mediated biotransformation of CPF in pooled HLMs (literature kinetic data). Conditions: bioactivation of CPF. The series is classed as in vitro ADME, human. An excerpt:
(§1) As mentioned before, the in vitro apparent kinetic parameters (Vmax and Km) for pathway 1 and pathway 2 in the HLM-based approach, and pathway 3 in both approaches were all obtained directly from reported studies using pooled HLMs (Buratti et al. [2003]; Sams et al. [2004]; Zhao et al. [2019]). Therefore, no extra calculations were required to define these parameters. The kinetic parameters for the ISEF calculation, pathway 1 and 2 in the Supersome™-based approach, and pathway 4 in both approaches (25 individuals) were all obtained by fitting the experimental data to the Michaelis–Menten model using GraphPad (GraphPad Prism 5.0 software, San Diego, CA, USA). It should be noted that the kinetic parameters for pathway 4 used in the two approaches were calculated as mean of the kinetic parameters (Vmax and Km) obtained using 25 individual HP samples (with correction for total protein concentration of each plasma sample).

The target in another series is CYP3A4 (Homo sapiens, UniProt P08684). Kind of series: Supersome CYP3A4 kinetic incubations. Type of series: in vitro ADME. Further details: purchased Corning (Amsterdam, The Netherlands); host or cells: baculovirus-transfected insect cells. Conditions: for Scaled Vmax(app): CYP3A4 scaled to whole liver by Eq. 3; for Vmax (app) / Km: Supersome CYP3A4. Here is the method: The final incubations were carried out in 50 mM Tris–HCl (pH 7.4) containing 5 mM MgCl2, 1 mM EDTA (as an A-esterase PON1 inhibitor) (Bizoń and Milnerowicz [2018]), 50 µM iso-OMPA (as a B-esterases inhibitor) (Lane et al. [2006]), Supersome™ isoform (at final concentration of 0.005 nmol CYP/ml for 1A2, 0.001 nmol CYP/ml for 2B6, 0.01 nmol CYP/ml for 2C19, and 0.01 nmol CYP/ml for 3A4) and CPF at different final concentrations (0.05, 0.1, 0.25, 0.5, 1, 5 and 10 µM for 1A2, 0.05, 0.1, 0.25, 0.5, 1, 5 10 and 25 µM for 2B6, 1, 2.5, 5, 10, 25 and 50 µM for 2C19, and 0.5, 1, 2.5, 5, 10, 25 and 50 µM for 3A4), which were added from 100 times concentrated stock solutions in ACN. After 1 min preincubation in a 37 °C water bath, 5 µl NADPH (final concentration 1 mM) was added to the incubation system. Control incubations were performed by replacing NADPH with the same amount of Tris–HCl (pH 7.4). The total volume of the incubation mixtures was 200 µl. The incubations lasted for 2 min at 37 °C and were terminated by addition of 50 µl ice cold ACN and subsquently put on ice. After that, samples were centrifuged at 16,000 g (4 ℃) for 5 min and supernatants of samples were separated into two equal portions for Ultra-Performance Liquid Chromatography-Photodiode Array (UPLC-PDA) and Liquid Chromatography Mass Spectrometry (LC–MS/MS) analysis, respectively.
To normalize for differences in intrinsic CYP activity between Supersome™ and pooled HLMs and enable scaling of the activities to the in vivo situation, CYP-specific ISEF values need to be established. […] The incubation method was similar as used for the CPF kinetic incubation assay described above, except that certain incubation conditions were replaced by the conditions listed in Table 1. The samples obtained were analyzed by UPLC-PDA for acetaminophen, 4-hydroxymephenytoin, and 6β-hydroxytestosterone formation catalyzed by 1A2, 2C19 and 3A4, or LC–MS/MS for (±)-hydroxybupropion formation catalyzed by 2B6.
as §1
The in vivo Kmi values were assumed to be equal to the apparent Kmi(app) values (µM) obtained in the in vitro incubations, while the in vivo Vmaxi for each CYP isoform was derived from their corresponding apparent CYP isoform Vmaxi(app) (pmol/min/pmolCYP) using Eq. 3:3 Vmaxi=Vmaxiapp×CYPiabundance×ISEF×60×MPL×1000×VL/1,000,000,

The next series has as its target T1, CYP1A2 (Homo sapiens, UniProt P05177).
T1 sequence (P05177 2-516 limits assumed): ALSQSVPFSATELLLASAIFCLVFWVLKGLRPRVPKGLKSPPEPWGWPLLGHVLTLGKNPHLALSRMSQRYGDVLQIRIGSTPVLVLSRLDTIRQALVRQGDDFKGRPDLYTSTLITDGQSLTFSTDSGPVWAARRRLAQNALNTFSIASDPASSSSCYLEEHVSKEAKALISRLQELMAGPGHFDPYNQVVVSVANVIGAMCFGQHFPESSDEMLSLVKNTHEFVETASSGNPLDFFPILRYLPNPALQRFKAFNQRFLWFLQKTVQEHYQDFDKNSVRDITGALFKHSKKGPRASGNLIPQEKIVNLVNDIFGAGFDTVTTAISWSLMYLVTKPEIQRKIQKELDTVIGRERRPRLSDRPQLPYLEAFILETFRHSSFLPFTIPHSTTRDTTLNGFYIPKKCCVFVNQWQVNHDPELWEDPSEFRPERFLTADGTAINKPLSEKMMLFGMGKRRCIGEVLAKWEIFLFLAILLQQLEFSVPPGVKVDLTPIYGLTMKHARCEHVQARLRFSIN
Conditions: bioactivation of CPF, ref Foxenberg et al. [2007]; cited from earlier work.

A further series addresses CYP2C19 (Homo sapiens, UniProt P33261). Conditions: bioactivation of CPF, ref Foxenberg et al. [2007]; cited from earlier work.

Like-named read-outs stand apart in the source and are kept apart here.

The source of these data is publication PMC9013686, “Inter-individual variation in chlorpyrifos toxicokinetics characterized by physiologically based kinetic (PBK) and Monte Carlo simulation comparing human liver microsome and Supersome™ cytochromes P450 (CYP)-specific kinetic data as model input” (Archives of Toxicology, 2022).

A word on the Km: it is the substrate concentration at which the rate is half of its maximum.

Sequence of CYP3A4 (P08684 2-503 limits assumed): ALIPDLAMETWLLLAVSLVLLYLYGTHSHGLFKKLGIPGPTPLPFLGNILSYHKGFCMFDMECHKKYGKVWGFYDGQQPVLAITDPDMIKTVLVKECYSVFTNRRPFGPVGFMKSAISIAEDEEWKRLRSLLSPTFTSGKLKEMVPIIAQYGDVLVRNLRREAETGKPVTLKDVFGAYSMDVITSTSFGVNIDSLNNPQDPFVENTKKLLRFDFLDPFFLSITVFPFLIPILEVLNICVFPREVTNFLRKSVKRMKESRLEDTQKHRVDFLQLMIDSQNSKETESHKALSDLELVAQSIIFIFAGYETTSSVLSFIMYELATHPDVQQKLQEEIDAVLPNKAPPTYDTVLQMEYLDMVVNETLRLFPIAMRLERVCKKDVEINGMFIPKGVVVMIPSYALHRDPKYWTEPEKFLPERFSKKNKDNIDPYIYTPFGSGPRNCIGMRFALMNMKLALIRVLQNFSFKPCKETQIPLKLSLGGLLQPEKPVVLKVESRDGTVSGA
Sequence of CYP2C19 (P33261 whole entry): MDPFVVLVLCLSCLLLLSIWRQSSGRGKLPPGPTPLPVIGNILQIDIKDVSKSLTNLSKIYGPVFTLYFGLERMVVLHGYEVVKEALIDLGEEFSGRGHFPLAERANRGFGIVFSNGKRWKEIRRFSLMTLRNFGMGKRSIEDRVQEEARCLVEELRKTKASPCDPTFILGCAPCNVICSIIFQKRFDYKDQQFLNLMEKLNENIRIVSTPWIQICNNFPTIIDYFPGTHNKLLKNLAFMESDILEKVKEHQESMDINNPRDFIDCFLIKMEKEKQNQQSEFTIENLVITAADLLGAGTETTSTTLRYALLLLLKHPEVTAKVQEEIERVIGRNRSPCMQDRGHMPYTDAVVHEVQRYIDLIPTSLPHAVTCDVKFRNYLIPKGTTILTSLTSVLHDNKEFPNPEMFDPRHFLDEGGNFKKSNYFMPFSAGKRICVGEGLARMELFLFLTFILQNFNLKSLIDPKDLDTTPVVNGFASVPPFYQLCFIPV

As for `CCOP(=S)(OCC)Oc1nc(Cl)c(Cl)cc1Cl` [CPF, Chlorpyrifos], the “predicted BMDL10 lower than reported human model-derived BMDL10” value in the series on RBC AChE (HLM-based biphasic PBK model versus USEPA [2014]) is recorded as 1.8 fold; in the series with RBC AChE (Supersome-based PBK model versus USEPA [2014]) it was 1.9 fold. Besides, in the series with RBC AChE (average population), the “BMDL10 of HLM-based approach with biphasic kinetics versus HLM-based approach without high affinity component” value is listed as “sixfold lower”. Also, in the series with RBC AChE (average population), the “difference in BMDL10 between HLM-based (biphasic) and Supersome-based PBK model” value is on record as 1.04 fold. Further, the “predicted BMDL10 higher than reported human model-derived BMDL10” value in the series on RBC AChE (non-biphasic HLM-based PBK model versus USEPA [2014]) was 3.3 fold. In the series on pooled HLMs (CYPs) (high and low affinity phase included), the “CE of pooled HLM, biphasic kinetics” value was found to be 3600 L/h. For the same compound, in the series on pooled HLMs (CYPs) (non-biphasic), the “CE of pooled HLM, high affinity phase excluded” value was 41 L/h. The “Scaled Vmax(app)” value is 910.77 µmol/h at CYP3A4 (Pathway 1 (CPF to CPO)) and 1222.21 µmol/h at CYP3A4 (Pathway 2 (CPF to TCPy)). Further, the figures for the “Vmax (app)” value at CYP3A4 (Pathway 1 (CPF to CPO)) and on CYP3A4 (Pathway 2 (CPF to TCPy)) were 17.78 pmol/min/pmolCYP and 23.86 pmol/min/pmolCYP, respectively. The Km is 29.8 µM at CYP3A4 (human, recombinant CYP3A4 Supersomes, pH 7.4, Km(app), Pathway 1 (bioactivation of CPF to CPO)); 18.1 µM on CYP3A4 (human, recombinant CYP3A4 Supersomes, pH 7.4, Km(app), Pathway 2 (detoxification of CPF to TCPy)); 29.8 µM at CYP3A4 (read-out: Km(app), Pathway 1 (bioactivation of CPF to CPO)); 0.38 µM on CYP1A2; 1.23 µM on CYP2C19.
